Test results taken from EP4775582A1, “MACROCYCLIC COMPOUND AND ANTIBODY-DRUG CONJUGATE THEREOF” (Genfleet Therapeutics (Shanghai) Inc., priority 2023, dated 2025).

Tests used:
[1] = test system: AsPC-1 p-ERK; assay: Cell p-ERK assay (HTRF), AsPC-1 cells; format: cell-based, human; conditions: AsPC-1 cells (KRAS G12D), 3 h incubation; read-out: AsPC-1 p-ERK IC50
Method in brief: (§1)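 AsPC-1 (10000/well) or NCI-H441 (20000/well) cells were seeded overnight and then exposed to compound for 3 h at 37 °C. Lysates were probed for ERK phospho-T202/Y204 by HTRF with a 4-hour antibody incubation. IC50 values came from four-parameter fits of inhibition against log concentration.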

[2] = test system: H441 p-ERK; assay: Cell p-ERK assay (HTRF), NCI-H441 cells; format: cell-based, human; conditions: NCI-H441 cells (KRAS G12V), 3 h incubation
Method in brief: as §1

[3] = test system: NCI-H441 cells; assay: 3D cell proliferation assay (CellTiter Glo-3D), NCI-H441; format: cell-based, human; conditions: NCI-H441 cells (KRAS G12V), 2% FBS, 5 days, read-out: H441 AP IC50
Method in brief: (§2)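 Cells seeded at 800 per well (AsPC-1, NCI-H441) in 2% FBS medium and incubated overnight at 37 °C, 5% CO2. Compounds added next day from 10× stock, then 5 days' further culture. Viability read by CellTiter-Glo luminescence; IC50 from four-parameter fit of inhibition versus log concentration.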

[4] = target: KRAS G12V-cRAF (Homo sapiens, UniProt P01116+P62937, G12V); assay: Assay for binding of KRAS to cRAF (HTRF, with Cyclophilin A), KRAS G12V; conditions: read-out: KRAS G12V-cRAF binding assay, GPPNP-KRAS G12V, IC50 values
Chain of KRAS G12V-cRAF (P01116 1-188 isoform P01116-2 G12V): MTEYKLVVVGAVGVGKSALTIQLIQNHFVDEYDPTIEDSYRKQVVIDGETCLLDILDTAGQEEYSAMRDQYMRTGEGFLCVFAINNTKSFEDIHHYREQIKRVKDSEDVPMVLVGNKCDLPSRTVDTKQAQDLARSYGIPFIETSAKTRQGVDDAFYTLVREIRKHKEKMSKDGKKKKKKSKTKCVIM
Chain of KRAS G12V-cRAF (P62937 whole entry): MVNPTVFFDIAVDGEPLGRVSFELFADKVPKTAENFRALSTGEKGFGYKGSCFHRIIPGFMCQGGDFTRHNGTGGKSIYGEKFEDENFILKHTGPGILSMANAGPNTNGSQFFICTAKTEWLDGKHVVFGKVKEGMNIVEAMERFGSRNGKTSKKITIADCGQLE
Description: (§3) The plate was centrifuged at 1000 rpm for 1 min and then incubated in the thermostatic incubator at 20 °C for 30 min. […] The plate was centrifuged at 1000 rpm for 1 min and then incubated in the thermostatic incubator at 20 °C for 60 min. […] The working solution was added to the aforementioned assay plate at 5 µL/well. The plate was centrifuged at 1000 rpm for 1 min and then incubated in the thermostatic incubator at 20 °C for 60 min.

[5] = Solubility experiment (HPLC, external standard); format: physicochemical; conditions: pH 7.4 medium, 37 °C, 24 h
Method in brief: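 Solid compound (about 1 mg per 1 mL medium) was shaken at 37 °C for 24 h in pH 1.2, 4.5 or 7.4 media, then centrifuged and the supernatant diluted with acetonitrile/water 50/50. Concentration in μg/mL was found by HPLC against an external standard prepared from a DMSO stock.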

[6] = target: KRAS WT-cRAF (Homo sapiens, UniProt P01116+P62937); assay: Assay for binding of KRAS to cRAF (HTRF, with Cyclophilin A), KRAS WT; conditions: read-out: KRAS WT-cRAF binding assay, GPPNP-KRAS WT, IC50 values
Chain of KRAS WT-cRAF (P01116 1-188 isoform P01116-2): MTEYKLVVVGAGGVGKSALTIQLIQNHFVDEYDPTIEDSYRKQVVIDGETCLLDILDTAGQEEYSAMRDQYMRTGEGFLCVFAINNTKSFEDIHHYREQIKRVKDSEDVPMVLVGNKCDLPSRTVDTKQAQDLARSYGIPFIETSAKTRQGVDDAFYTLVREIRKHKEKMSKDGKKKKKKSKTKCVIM
Chain of KRAS WT-cRAF (P62937 whole entry): as the sequence (P62937 whole entry) above
Description: as §3

[7] = test system: AsPC-1 cells; assay: 3D cell proliferation assay (CellTiter Glo-3D), AsPC-1; format: cell-based, human; conditions: AsPC-1 cells (KRAS G12D), 3D, 2% FBS, 5 days; read-out: AsPC-1 AP IC50
Method in brief: as §2

[8] = Human liver microsomal stability experiment; format: in vitro ADME; conditions: human liver microsomes, NADPH, 37 °C
Description: This experiment was intended to investigate the metabolic stability of the test compounds in human liver microsomes. The materials used in the experiment included 10 mM solutions of the test compounds and the control sample, human liver microsomes, and reduced nicotinamide adenine dinucleotide phosphate (NADPH) powder. In the experiment, a 100 mM potassium phosphate buffer was used as the buffer system.
The liver microsome working solution was prepared by diluting the liver microsome stock solution to 0.75 mg/mL using the 100 mM potassium phosphate buffer. Then, 5 µL of the 10 mM stock solution of the test compound was taken, and 195 µL of methanol was added. The mixture was well mixed to prepare a working solution A with a concentration of 0.25 mM. Subsequently, the working solution A was diluted to 1.5 µM using the liver microsome working solution to prepare a compound-liver microsome mixed solution. Additionally, NADPH powder was dissolved in 100 mM potassium phosphate buffer to prepare a 6 mM NADPH solution. The compound-liver microsome mixed solution was dispensed into a 96-well plate at 30 µL/well, with labeled time points of 0 min, 30 min, and 60 min. For 0-min samples, 180 µL of acetonitrile containing 100 ng/mL tolbutamide and 15 µL of the NADPH solution were added directly. The 96-well plate and the NADPH solution were then preheated under a 37 °C water bath for 5 min. After the preheating, 15 µL of the NADPH solution was added to each of the 30-min and 60-min sample wells. The plate was gently shaken for mixing and then incubated under the 37 °C water bath for the corresponding time. After the incubation was completed, 180 µL of acetonitrile containing 100 ng/mL tolbutamide was added to each sample well. The plate was sealed with a sealing film, shaken for 10 min (800 rpm/min), and then centrifuged for 15 min (4000 rpm). After the centrifugation, 50 µL of the supernatant was taken and added to a 96-well plate containing 150 µL of deionized water, and then the plate was sealed and shaken for 10 min (800 rpm) for uniform mixing. Subsequently, sample analysis was performed using liquid chromatography-tandem mass spectrometry (LC-MS/MS). […] For humans, the microsome protein-to-liver weight ratio was 45 mg/g, and the liver-to-body weight ratio was 20.7 g/kg.

Compound `CCn1c(-c2cc(C#CCN3CCC(C#N)(CN)CC3)cnc2[C@H](C)OC)c2c3cc(ccc31)-c1coc(n1)C[C@H](NC(=O)[C@H]1[C@@H]3COC[C@@H]31)C(=O)N1CCC[C@H](N1)C(=O)OCC(C)(C)C2` (atropisomer, axis not shown; (Ra)) [Compound Z166, (1R,5S,6r)-N-((6^3S,4S,Z)-(Ra)-1^2-(5-(3-(4-(aminomethyl)-4-cyanopiperidin-1-yl)prop-1-yn-1-yl)-2-((S)-1-methoxyethyl)pyridin-3-yl)-1^1-ethyl-10,10-dimethyl-5,7-dioxo-6^1,6^2,6^3,6^4,6^5,6^6-hexahydro-1^1H-8-oxa-2(4,2)-oxazola-1(5,3)-indola-6(1,3)-pyridazinacycloundecaphane-4-yl)-3-oxabicyclo[3.1.0]hexane-6-carboxamide] has an IC50 [1] of 0.1 nM, an IC50 [2] of 0.2 nM and an IC50 [3] of 0.37 nM. The IC50 [4] was 12.9 nM, the “Solubility at pH 7.4 (µg/mL)” value [5] was 26.76 µg/mL and the IC50 [6] was 38.9 nM. The IC50 [7] was 0.12 nM and the “T1/2” value [8] was 19.6 min.
